ChEMBL document CHEMBL3352263, “Synthesis and biological evaluation of bivalent cannabinoid receptor ligands based on hCB₂R selective benzimidazoles reveal unexpected intrinsic properties” (Bioorg Med Chem, 2014)

Experiments:
Cannabinoid receptor 2 [1] = biological target: T1, Cannabinoid receptor 2 (Homo sapiens, UniProt P34972); assay: Agonist activity at human CB2 receptor expressed in Sf9 cells coexpressing Galpha i2 assessed as Galpha GTPase activity using [gamma-33P]GTP at 100 uM by scintillation counting
Cannabinoid receptor 2 [2] = biological target: T1, Cannabinoid receptor 2; assay: Antagonist activity at human CB2 receptor expressed in Sf9 cells coexpressing Galpha i2 assessed as Galpha GTPase activity using [gamma-33P]GTP at 100 uM by scintillation counting in presence of 30 nM CP55940; format: functional
Cannabinoid receptor 2 [3] = biological target: T1, Cannabinoid receptor 2; assay: Inverse agonist activity at human CB2 receptor expressed in Sf9 cells coexpressing Galpha i2 assessed as Galpha GTPase activity using [gamma-33P]GTP by scintillation counting in presence of CP55940
Cannabinoid receptor 1 [4] = biological target: T2, Cannabinoid receptor 1 (Homo sapiens, UniProt P21554); assay: Agonist activity at human CB1 receptor expressed in Sf9 cells coexpressing Galpha i2 assessed as Galpha GTPase activity using [gamma-33P]GTP at 100 uM by scintillation counting
Cannabinoid receptor 1 [5] = biological target: T2, Cannabinoid receptor 1; assay: Inverse agonist activity at human CB1 receptor expressed in Sf9 cells coexpressing Galpha i2 assessed as Galpha GTPase activity using [gamma-33P]GTP by scintillation counting in presence of CP55940
Cannabinoid receptor 1 [6] = biological target: T2, Cannabinoid receptor 1; assay: Antagonist activity at human CB1 receptor expressed in Sf9 cells coexpressing Galpha i2 assessed as Galpha GTPase activity using [gamma-33P]GTP at 100 uM by scintillation counting in presence of 30 nM CP55940; format: functional
Cannabinoid receptor 2 [7] = biological target: T1, Cannabinoid receptor 2; assay: Antagonist activity at human CB2 receptor expressed in Sf9 cells coexpressing Galpha i2 assessed as Galpha GTPase activity using [gamma-33P]GTP by scintillation counting in presence of 30 nM CP55940; format: functional
Cannabinoid receptor 2 [8] = biological target: T1, Cannabinoid receptor 2; assay: Agonist activity at human CB2 receptor expressed in Sf9 cells coexpressing Galpha i2 assessed as Galpha GTPase activity using [gamma-33P]GTP by scintillation counting
Cannabinoid receptor 1 [9] = biological target: T2, Cannabinoid receptor 1; assay: Agonist activity at human CB1 receptor expressed in Sf9 cells coexpressing Galpha i2 assessed as Galpha GTPase activity using [gamma-33P]GTP by scintillation counting
Homo sapiens = species on record: Homo sapiens; assay: Selectivity ratio of EC50 for human CB1 receptor to EC50 for human CB2 receptor

T2 sequence (P21554 whole entry): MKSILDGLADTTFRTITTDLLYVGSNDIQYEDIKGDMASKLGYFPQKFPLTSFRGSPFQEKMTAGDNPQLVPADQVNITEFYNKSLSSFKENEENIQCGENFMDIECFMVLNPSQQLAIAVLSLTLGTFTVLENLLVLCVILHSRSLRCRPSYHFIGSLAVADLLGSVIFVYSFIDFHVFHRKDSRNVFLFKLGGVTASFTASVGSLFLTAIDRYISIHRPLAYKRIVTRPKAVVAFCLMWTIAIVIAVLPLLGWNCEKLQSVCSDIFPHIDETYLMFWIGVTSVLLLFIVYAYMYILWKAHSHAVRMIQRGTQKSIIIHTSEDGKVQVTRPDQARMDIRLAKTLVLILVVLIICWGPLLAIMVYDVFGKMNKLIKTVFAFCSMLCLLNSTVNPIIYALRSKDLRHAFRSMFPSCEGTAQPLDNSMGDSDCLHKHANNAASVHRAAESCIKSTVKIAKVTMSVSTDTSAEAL
T1 sequence (P34972 whole entry): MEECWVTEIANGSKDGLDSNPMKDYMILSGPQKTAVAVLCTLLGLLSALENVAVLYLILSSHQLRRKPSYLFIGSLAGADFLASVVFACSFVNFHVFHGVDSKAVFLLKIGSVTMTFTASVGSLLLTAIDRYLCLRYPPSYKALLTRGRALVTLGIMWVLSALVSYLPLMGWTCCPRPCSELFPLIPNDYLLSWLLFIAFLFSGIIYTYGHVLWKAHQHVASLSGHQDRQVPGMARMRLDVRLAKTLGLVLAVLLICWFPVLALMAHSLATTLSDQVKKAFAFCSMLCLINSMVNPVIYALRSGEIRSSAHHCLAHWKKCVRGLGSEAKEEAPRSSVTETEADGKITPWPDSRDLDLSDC

Cc1ccc(Cn2nc(C(=O)NC3C4(C)CCC(C4)C3(C)C)cc2-c2ccc(Cl)c(C)c2)cc1 (stereo not given) gave an Emax (Cannabinoid receptor 2 [1]) of -3% and an Emax (Cannabinoid receptor 2 [2]) of 9%.
CCOc1ccc(Cc2nc3cc(C(=O)N(CC)CC)ccc3n2CCCN(C)CCCn2c(Cc3ccc(OCC)cc3)nc3cc(C(=O)N(CC)CC)ccc32)cc1 was tested, and the Emax (Cannabinoid receptor 2 [1]) was -2%, the Emax (Cannabinoid receptor 2 [2]) was 5% and the EC50 (Cannabinoid receptor 2 [3]) was 12 µM. The Emax (Cannabinoid receptor 1 [4]) was -43% and the EC50 (Cannabinoid receptor 1 [5]) was 34.7 µM.
With CCOc1ccc(Cc2nc3cc(C(=O)N(CC)CC)ccc3n2CCCCCCCCCCN(C)CCCCCCCCCCn2c(Cc3ccc(OCC)cc3)nc3cc(C(=O)N(CC)CC)ccc32)cc1 the Emax (Cannabinoid receptor 2 [1]) was -11%, the Emax (Cannabinoid receptor 2 [2]) was -33% and the EC50 (Cannabinoid receptor 2 [3]) was 6.61 µM. For the same compound, the Emax (Cannabinoid receptor 1 [4]) was -97% and the EC50 (Cannabinoid receptor 1 [5]) was 6.31 µM.
Work on CCOc1ccc(Cc2nc3cc(C(=O)NCCCN(C)C)ccc3n2CCC(C)C)cc1 yielded an Emax (Cannabinoid receptor 2 [1]) of 11%, an Emax (Cannabinoid receptor 2 [2]) of 65% and an Emax (Cannabinoid receptor 1 [4]) of -5%. It also gave an Emax (Cannabinoid receptor 1 [6]) of 71%.
With CCOc1ccc(Cc2nc3cc(C(=O)NCCCCCCCCCCN(C)CCCCCCCCCCNC(=O)c4ccc5c(c4)nc(Cc4ccc(OCC)cc4)n5CCC(C)C)ccc3n2CCC(C)C)cc1 the Emax (Cannabinoid receptor 2 [1]) was 3%, the Emax (Cannabinoid receptor 2 [2]) was 28% and the EC50 (Cannabinoid receptor 2 [3]) was 16.6 µM. For the same compound, the Emax (Cannabinoid receptor 1 [4]) was -42% and the EC50 (Cannabinoid receptor 1 [5]) was 25.7 µM.
CCOc1ccc(Cc2nc3cc(C(=O)N(CC)CC)ccc3n2CCCN(C)C)cc1 was tested, and the Emax (Cannabinoid receptor 2 [1]) was 106%, the Emax (Cannabinoid receptor 2 [2]) was 69% and the EC50 (Cannabinoid receptor 2 [7]) was 12.6 µM. For the same compound, the Emax (Cannabinoid receptor 1 [4]) was -3% and the Emax (Cannabinoid receptor 1 [6]) was 95%.
In the case of CCOc1ccc(Cc2nc3cc(C(=O)N(CC)CC)ccc3n2CCCCN(C)CCCCn2c(Cc3ccc(OCC)cc3)nc3cc(C(=O)N(CC)CC)ccc32)cc1, the Emax (Cannabinoid receptor 2 [1]) is reported as 5%, the Emax (Cannabinoid receptor 2 [2]) is reported as 14% and the EC50 (Cannabinoid receptor 2 [3]) is reported as 57.5 µM. The Emax (Cannabinoid receptor 1 [4]) was -40%.
CCCCn1c(Cc2ccc(OCC)cc2)nc2cc(C(=O)N(CC)CC)ccc21 showed an Emax (Cannabinoid receptor 2 [1]) of 198%, an Emax (Cannabinoid receptor 2 [2]) of 162% and an EC50 (Cannabinoid receptor 2 [8]) of 0.174 µM. The Emax (Cannabinoid receptor 1 [4]) was 67%, the EC50 (Cannabinoid receptor 1 [9]) was 1.35 µM and the Ratio EC50 (Homo sapiens) was 8.
In the case of CCOc1ccc(Cc2nc3cc(C(=O)NCCCN(C)CCCNC(=O)c4ccc5c(c4)nc(Cc4ccc(OCC)cc4)n5CCC(C)C)ccc3n2CCC(C)C)cc1, the Emax (Cannabinoid receptor 2 [1]) is reported as -11%, the Emax (Cannabinoid receptor 2 [2]) is reported as -32% and the EC50 (Cannabinoid receptor 2 [3]) is reported as 2.88 µM. For the same compound, the Emax (Cannabinoid receptor 1 [4]) was -83% and the EC50 (Cannabinoid receptor 1 [5]) was 17.4 µM.
CCOc1ccc(Cc2nc3cc(C(=O)NCCCCCCCCCCN(C)C)ccc3n2CCC(C)C)cc1 gave an Emax (Cannabinoid receptor 2 [1]) of 0%, an Emax (Cannabinoid receptor 2 [2]) of 20% and an EC50 (Cannabinoid receptor 2 [3]) of 19.5 µM. It also gave an Emax (Cannabinoid receptor 1 [4]) of -58% and an EC50 (Cannabinoid receptor 1 [5]) of 24 µM.
With CCOc1ccc(Cc2nc3cc(C(=O)OC)ccc3n2CCC(C)C)cc1 the Emax (Cannabinoid receptor 2 [1]) was 37%, the Emax (Cannabinoid receptor 2 [2]) was 121% and the EC50 (Cannabinoid receptor 2 [8]) was 0.295 µM. The Emax (Cannabinoid receptor 1 [4]) was -3% and the Emax (Cannabinoid receptor 1 [6]) was 98%.
With COc1ccc(C(=O)c2c(C)n(CCN3CCOCC3)c3cc(I)ccc23)cc1 the Emax (Cannabinoid receptor 2 [1]) was 5%, the Emax (Cannabinoid receptor 2 [2]) was 15% and the EC50 (Cannabinoid receptor 2 [3]) was 0.603 µM.
CCOc1ccc(Cc2nc3cc(C(=O)N(CC)CC)ccc3n2CCC(C)C)cc1 gave an Emax (Cannabinoid receptor 2 [1]) of 192%, an Emax (Cannabinoid receptor 2 [2]) of 167% and an Emax (Cannabinoid receptor 1 [4]) of 48%. The EC50 (Cannabinoid receptor 1 [9]) was 3.24 µM.
CCOc1ccc(Cc2nc3cc(C(=O)N(CC)CC)ccc3n2CCCCCCCCCCN(C)C)cc1 was tested, and the Emax (Cannabinoid receptor 2 [1]) was 1%, the Emax (Cannabinoid receptor 2 [2]) was 60% and the EC50 (Cannabinoid receptor 2 [3]) was 31.6 µM. The Emax (Cannabinoid receptor 1 [4]) was -55% and the EC50 (Cannabinoid receptor 1 [5]) was 25.1 µM.
Cc1c(C(=O)NN2CCCCC2)nn(-c2ccc(Cl)cc2Cl)c1-c1ccc(I)cc1 was tested, and the Emax (Cannabinoid receptor 1 [4]) was -84% and the Emax (Cannabinoid receptor 1 [6]) was -8%.
